Assay results: ChEMBL document CHEMBL3817748, “Identification of novel peptoid agonists of fibroblast growth factor receptor using microarray-based screening” (Medchemcomm, 2016)
Active and inactive are the calls of the source. The calls are words filed in the database; no cut-off is given here. *1 amine or outer side, *2 acyl side, *3 side chain or, on linkers, in order; H or OH if unused. Where a SMILES comes first, the peptide text is derived from it. [ ]: non-standard residue; d: D form. ξ: configuration not given here. Gly(N-(CH2)3N-pyrrolidone) = O=C(O)CNCCCN1CCCC1=O; Gly(N-CH2CH2C6H4-4Cl) = O=C(O)CNCCc1ccc(Cl)cc1; X1 = O=C(CN(Cc1cccc(C(F)(F)F)c1)[*:1])[*:2]; X3 = CC(c1ccccc1)N(CC(=O)[*:2])[*:1]; Nrpe = C[C@@H](NCC(=O)O)c1ccccc1; X2 = O=C(CN(CC1CCCO1)[*:1])[*:2]; NFurfurylGly = O=C(O)CNCc1ccco1; Gly(N-cPent) = O=C(O)CNC1CCCC1; NAllylGly = C=CCNCC(=O)O; Nphe = O=C(O)CNCc1ccccc1; Nlys = NCCCCNCC(=O)O; ξC = NC(CS)C(=O)O

Columns and labels:
[1] = species: Homo sapiens; test: Binding affinity to Fc-tagged FGFR1alpha (unknown origin) at 100 uM after 1 hr by Texas-red labeled anti-Fc detection based microarray assay
[2] = biological target: Fibroblast growth factor receptor 1 (Homo sapiens) (UniProt P11362); test: Agonist activity at FGFR1 in human MCF7 cells assessed as increase in Akt phosphorylation at 15 uM after 10 mins by Western blot analysis; assay type: cell-based
[3] = species: Homo sapiens; test: Binding affinity to Fc-tagged FGFR1alpha (unknown origin) at 25 uM after 1 hr by Texas-red labeled anti-Fc detection based microarray assay
[4] = tested on: MCF7; test: Agonist activity at FGFR1alpha in human MCF7 cells assessed as increase in ERK phosphorylation at 15 uM after 10 mins by Western blot analysis; assay type: cell-based
[5] = species: Homo sapiens; test: Binding affinity to Fc-tagged FGFR1alpha (unknown origin) at 50 uM after 1 hr by Texas-red labeled anti-Fc detection based microarray assay
[6] = biological target: Fibroblast growth factor receptor 2 (Homo sapiens) (UniProt P21802); test: Agonist activity at FGFR2 in human MDA231 cells assessed as increase in Akt phosphorylation at 15 uM after 10 mins by Western blot analysis; assay type: cell-based
[7] = biological target: Fibroblast growth factor receptor 2 (Homo sapiens) (UniProt P21802); test: Agonist activity at FGFR2 in human MDA231 cells assessed as increase in ERK phosphorylation at 15 uM after 10 mins by Western blot analysis; assay type: cell-based
[8] = biological target: Fibroblast growth factor receptor 1 (Mus musculus) (UniProt P16092); test: Agonist activity at FGFR1 in mouse NIH-3T3 cells assessed as increase in ERK phosphorylation at 15 uM after 10 mins by Western blot analysis; assay type: cell-based; details: NIH3T3
[9] = biological target: Fibroblast growth factor receptor 1 (Mus musculus) (UniProt P16092); test: Agonist activity at FGFR1 in mouse NIH-3T3 cells assessed as increase in Akt phosphorylation at 15 uM after 10 mins by Western blot analysis; assay type: cell-based; details: NIH3T3
[10] = species: Homo sapiens; test: Binding affinity to Fc-tagged FGFR1alpha (unknown origin) uM after 1 hr by FITC-labeled anti-Fc detection based microarray assay
[11] = species: Homo sapiens; test: Binding affinity to Fc-tagged FGFR1alpha (unknown origin) at 150 uM by Texas-red labeled anti-Fc detection based fluorescence microscopic analysis

Fibroblast growth factor receptor 1 (Homo sapiens), sequence (P11362 22-822 limits assumed): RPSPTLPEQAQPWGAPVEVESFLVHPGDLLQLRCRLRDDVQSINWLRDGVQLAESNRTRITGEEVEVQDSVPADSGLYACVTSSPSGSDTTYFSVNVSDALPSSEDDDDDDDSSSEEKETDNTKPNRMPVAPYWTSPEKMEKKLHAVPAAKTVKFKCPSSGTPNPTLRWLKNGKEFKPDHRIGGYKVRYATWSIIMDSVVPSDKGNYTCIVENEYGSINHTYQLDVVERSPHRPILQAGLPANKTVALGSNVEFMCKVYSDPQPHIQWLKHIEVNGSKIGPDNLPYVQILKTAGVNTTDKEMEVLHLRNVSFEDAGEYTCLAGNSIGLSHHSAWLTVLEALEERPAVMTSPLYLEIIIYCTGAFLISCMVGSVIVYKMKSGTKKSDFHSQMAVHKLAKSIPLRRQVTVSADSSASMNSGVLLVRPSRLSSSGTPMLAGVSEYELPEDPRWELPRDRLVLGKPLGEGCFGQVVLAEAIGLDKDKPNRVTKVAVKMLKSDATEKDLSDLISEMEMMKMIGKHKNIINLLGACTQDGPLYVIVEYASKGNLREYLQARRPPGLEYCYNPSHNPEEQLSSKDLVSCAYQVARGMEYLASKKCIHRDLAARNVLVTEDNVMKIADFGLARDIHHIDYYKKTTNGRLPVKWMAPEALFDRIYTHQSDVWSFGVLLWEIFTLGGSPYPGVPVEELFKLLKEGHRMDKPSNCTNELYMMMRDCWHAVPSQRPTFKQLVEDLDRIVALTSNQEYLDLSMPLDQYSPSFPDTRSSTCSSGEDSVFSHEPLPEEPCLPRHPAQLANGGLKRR
Fibroblast growth factor receptor 2 (Homo sapiens), sequence (P21802 22-821 limits assumed): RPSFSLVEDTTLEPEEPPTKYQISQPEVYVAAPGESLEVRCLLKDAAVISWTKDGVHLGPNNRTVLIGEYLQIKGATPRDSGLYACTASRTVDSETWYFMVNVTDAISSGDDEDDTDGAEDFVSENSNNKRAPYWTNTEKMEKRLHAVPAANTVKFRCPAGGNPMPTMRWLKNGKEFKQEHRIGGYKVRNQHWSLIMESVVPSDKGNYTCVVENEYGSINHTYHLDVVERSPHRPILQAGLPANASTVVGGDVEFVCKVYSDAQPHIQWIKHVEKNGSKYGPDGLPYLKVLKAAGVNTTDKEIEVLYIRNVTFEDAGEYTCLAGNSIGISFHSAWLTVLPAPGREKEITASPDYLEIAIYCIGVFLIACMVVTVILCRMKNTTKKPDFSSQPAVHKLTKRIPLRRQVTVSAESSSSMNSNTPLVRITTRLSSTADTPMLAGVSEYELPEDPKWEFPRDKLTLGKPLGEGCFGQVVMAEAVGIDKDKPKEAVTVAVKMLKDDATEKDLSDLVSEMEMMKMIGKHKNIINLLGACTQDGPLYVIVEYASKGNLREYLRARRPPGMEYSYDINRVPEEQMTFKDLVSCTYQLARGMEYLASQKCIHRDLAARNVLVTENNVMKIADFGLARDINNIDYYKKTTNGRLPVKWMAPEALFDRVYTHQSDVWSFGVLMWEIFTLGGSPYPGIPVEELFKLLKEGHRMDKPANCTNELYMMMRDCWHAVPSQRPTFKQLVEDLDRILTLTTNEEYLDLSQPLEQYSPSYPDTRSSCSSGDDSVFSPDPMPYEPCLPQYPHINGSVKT
Fibroblast growth factor receptor 1 (Mus musculus), sequence (P16092 whole entry): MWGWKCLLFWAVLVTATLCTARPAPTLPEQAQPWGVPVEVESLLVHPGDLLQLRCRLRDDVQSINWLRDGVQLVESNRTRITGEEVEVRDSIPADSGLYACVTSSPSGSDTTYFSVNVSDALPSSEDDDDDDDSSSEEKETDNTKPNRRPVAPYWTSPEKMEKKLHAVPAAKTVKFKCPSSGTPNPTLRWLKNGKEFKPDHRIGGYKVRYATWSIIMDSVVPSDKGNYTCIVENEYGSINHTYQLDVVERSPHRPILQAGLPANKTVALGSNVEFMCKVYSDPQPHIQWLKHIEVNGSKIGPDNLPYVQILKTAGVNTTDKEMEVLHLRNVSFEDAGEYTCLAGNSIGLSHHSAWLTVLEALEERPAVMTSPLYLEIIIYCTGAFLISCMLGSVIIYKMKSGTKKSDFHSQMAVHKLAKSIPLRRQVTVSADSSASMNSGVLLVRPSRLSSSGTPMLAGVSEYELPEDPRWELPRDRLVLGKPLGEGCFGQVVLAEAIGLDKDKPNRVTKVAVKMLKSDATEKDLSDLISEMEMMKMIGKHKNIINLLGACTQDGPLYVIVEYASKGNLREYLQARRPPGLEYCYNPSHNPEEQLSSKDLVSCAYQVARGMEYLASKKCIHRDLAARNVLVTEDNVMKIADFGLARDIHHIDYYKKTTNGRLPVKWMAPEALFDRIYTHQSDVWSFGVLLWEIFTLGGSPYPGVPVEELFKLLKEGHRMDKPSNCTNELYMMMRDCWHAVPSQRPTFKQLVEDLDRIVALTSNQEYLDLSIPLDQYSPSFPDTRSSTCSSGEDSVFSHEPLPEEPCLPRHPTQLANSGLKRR

| Compound | Activity [1] | Activity [2] | Activity [3] | Activity [5] | Activity [6] | Activity [7] | Activity [8] | Activity [9] | Activity [10] | Activity [11] | Activity [4] |
| --- | --- | --- | --- | --- | --- | --- | --- | --- | --- | --- | --- |
| C=CCN(CC(=O)N(CC(=O)N(CCCN1CCCC1=O)CC(=O)N(CCCCN)CC(=O)N(CCCCN)CC(=O)N[C@@H](CS)C(N)=O)CC1CCCO1)C(=O)CN(C(=O)CN(Cc1cccc(C(F)(F)F)c1)C(=O)CNCCCN1CCCC1=O)[C@H](C)c1ccccc1 (stereo partly specified) (H-[Gly(N-(CH2)3N-pyrrolidone)][X1][Nrpe][NAllylGly][X2][Gly(N-(CH2)3N-pyrrolidone)][Nlys][Nlys]C-NH2) | Active | Active | Active | Active | Active | Active | Active | Active | Active | Active | Active |
| C=CCN(CC(=O)N(CC(=O)N(CCCCN)CC(=O)N(CCCCN)CC(=O)N[C@@H](CS)C(N)=O)Cc1ccco1)C(=O)CN(Cc1ccco1)C(=O)CN(CC1CCCO1)C(=O)CN(C(=O)CNCCc1ccc(Cl)cc1)C1CCCC1 (stereo partly specified) (H-[Gly(N-CH2CH2C6H4-4Cl)][Gly(N-cPent)][X2][NFurfurylGly][NAllylGly][NFurfurylGly][Nlys][Nlys]C-NH2) | Active | inactive | Active | Active | inactive | inactive | inactive | inactive | Active | – | inactive |
| C=CCN(CC(=O)N(CC(=O)N(CC(=O)N(CC(=O)N(CCCCN)CC(=O)N(CCCCN)CC(=O)NC(CS)C(N)=O)C1CCCC1)Cc1ccco1)Cc1cccc(C(F)(F)F)c1)C(=O)CN(C(=O)CNCCc1ccc(Cl)cc1)C(C)c1ccccc1 (stereo unspecified) (H-[Gly(N-CH2CH2C6H4-4Cl)][X3][NAllylGly][X1][NFurfurylGly][Gly(N-cPent)][Nlys][Nlys][ξC]-NH2) | inactive | – | – | inactive | – | – | – | – | – | – | – |
| C=CCN(CC(=O)N(CCCCN)CC(=O)N(CCCCN)CC(=O)N[C@@H](CS)C(N)=O)C(=O)CN(C(=O)CN(Cc1ccccc1)C(=O)CN(C(=O)CN(Cc1ccccc1)C(=O)CNC1CCCC1)C1CCCC1)[C@H](C)c1ccccc1 (H-[Gly(N-cPent)][Nphe][Gly(N-cPent)][Nphe][Nrpe][NAllylGly][Nlys][Nlys]C-NH2) | Active | Active | Active | Active | Active | Active | Active | Active | Active | – | Active |

The next lines start with results.

| Activity [1] | Activity [2] | Activity [3] | Activity [5] | Activity [6] | Activity [7] | Activity [8] | Activity [9] | Activity [10] | Activity [11] | Compound | Activity [4] |
| --- | --- | --- | --- | --- | --- | --- | --- | --- | --- | --- | --- |
| Active | Active | Active | Active | Active | Active | Active | Active | Active | Active | C=CCN(CC(=O)N(CC(=O)N(CCCCN)CC(=O)N(CCCCN)CC(=O)N[C@@H](CS)C(N)=O)[C@H](C)c1ccccc1)C(=O)CN(Cc1ccco1)C(=O)CN(C(=O)CN(Cc1cccc(C(F)(F)F)c1)C(=O)CNCc1ccccc1)C1CCCC1 (H-[Nphe][X1][Gly(N-cPent)][NFurfurylGly][NAllylGly][Nrpe][Nlys][Nlys]C-NH2) | Active |
| inactive | – | – | inactive | – | – | – | – | – | – | CC(NCC(=O)N(CC(=O)N(CC(=O)N(CC(=O)N(CC(=O)N(CC(=O)N(CCCCN)CC(=O)N(CCCCN)CC(=O)NC(CS)C(N)=O)Cc1cccc(C(F)(F)F)c1)Cc1cccc(C(F)(F)F)c1)CC1CCCO1)Cc1ccccc1)C1CCCC1)c1ccccc1 (stereo unspecified) | – |
